Data from PMC6514978, “Synthesis, Antibacterial Activities, Mode of Action and Acute Toxicity Studies of New Oxazolidinone-Fluoroquinolone Hybrids” (Molecules, 2019).
In brackets after ≈: the same amount, converted by molar mass.

Legend:
[1] = test system: VRE (13B330); assay: MIC, broth microdilution (CLSI), clinical isolate; type: cell-based, vancomycin-resistant enterococcus; conditions: Enterococcus
Text: (§1) 6 standard strains and 3 clinical isolates were used to the preliminary evaluation of in vitro antibacterial activities of oxazolidinone-fluoroquinolone hybrids. For the further evaluation of hybrids OBP-4 and OBP-5, 263 clinical isolates including S. aureus (46), S. haemolyticus(32), S. epidermidis (10), E. faecalis (72), E. faecium (47), S. pneumoniae (13), H. parasuis (34), S. suis (9), and 8 resistant strains including MRSA, MRSE, CIP-resistant S. aureus and S. haemolyticus, VAN and quinolone-resistant S. pneumoniae, LZD-resistant E. faecalis, LZD/VAN and quinolone-resistant E. faecium were collected and tested.
(§2) Susceptibility testing of oxazolidinone-fluoroquinolone hybrids against various bacteria was performed by the broth microdilution method as outlined by the Clinical and Laboratory Standards Institute (CLSI). Three types of media, including cation-adjusted Mueller Hinton broth, Haemophilus Test Medium and cation-adjusted Mueller Hinton broth that contained 3%–5% lysed horse blood, were used to culture the corresponding bacteria. All compounds including comparator drugs were dissolved in an appropriate solvent at a concentration of 2.048 mg/mL and then serially diluted two-fold to provide the required concentrations. A final inoculum of 5 × 10^5 CFU/mL was used and plates were read after incubation for 16–24 h at 35 °C. […] Standard quality control strains (ATCC) were included throughout. Each determination was repeated in triplicate.

[2] = test system: E. coli (ATCC25922); assay: MIC, broth microdilution (CLSI), standard strain; type: cell-based; conditions: Escherichia coli, ATCC25922
Text: as §1, §2

[3] = test system: E. faecalis (ATCC29212); assay: MIC, broth microdilution (CLSI), standard strain; type: cell-based; conditions: Enterococcus faecalis; E. faecalis (ATCC29212); read-out: MIC
Text: as §1, §2

[4] = test system: H. influenzae (ATCC49247); assay: MIC, broth microdilution (CLSI), standard strain; type: cell-based; conditions: Haemophilus influenzae
Text: as §1, §2

[5] = test system: P. Aeruginosa (ATCC27853); assay: MIC, broth microdilution (CLSI), standard strain; type: cell-based; conditions: Pseudomonas aeruginosa, ATCC27853
Text: as §1, §2

[6] = test system: S. aureus (ATCC29213); assay: MIC, broth microdilution (CLSI), standard strain; type: cell-based; conditions: Staphylococcus aureus
Text: as §1, §2

[7] = test system: S. pneumoniae (ATCC49619); assay: MIC, broth microdilution (CLSI), standard strain; type: cell-based; conditions: Streptococcus pneumoniae
Text: as §1, §2

[8] = test system: S. epidermidis (10) clinical isolates; assay: Susceptibility of clinical isolates (MIC); type: cell-based, Staphylococcus epidermidis
Procedure, shortened: (§3)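 CLSI broth microdilution in cation-adjusted Mueller Hinton broth, Haemophilus Test Medium or MHB with 3–5% lysed horse blood, according to organism. The final inoculum was 5 × 10^5 CFU/mL and plates were read after 16–24 h at 35 °C. Determinations were run in triplicate with ATCC QC strains.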

[9] = test system: S. suis (9) clinical isolates; assay: Susceptibility of clinical isolates (MIC); type: cell-based, Streptococcus suis; conditions: Streptococcus suis, S. suis, 9 clinical isolates
Procedure, shortened: as §3

[10] = test system: E. faecalis (72) clinical isolates; assay: Susceptibility of clinical isolates (MIC); type: cell-based, Enterococcus faecalis
Procedure, shortened: as §3

[11] = test system: E. faecium (47) clinical isolates; assay: Susceptibility of clinical isolates (MIC); type: cell-based, Enterococcus faecium
Procedure, shortened: as §3

[12] = test system: H. parasuis (34) clinical isolates; assay: Susceptibility of clinical isolates (MIC); type: cell-based, Haemophilus parasuis; conditions: Glaesserella parasuis, H. parasuis, 34 clinical isolates
Procedure, shortened: as §3

[13] = test system: LZD-resistant E. faecalis; assay: microbe, parasite or virus in culture; type: cell-based; conditions: Enterococcus faecalis
Procedure, shortened: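 Broth microdilution per CLSI in cation-adjusted Mueller Hinton broth, Haemophilus Test Medium, or cation-adjusted MHB with 3%–5% lysed horse blood, as suited to each organism. Final inoculum 5 × 10^5 CFU/mL; plates read after 16–24 h at 35 °C. ATCC QC strains included; triplicate determinations.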

[14] = test system: protein synthesis (E. coli extract-based cell-free protein expression system); assay: In vitro transcription/translation assay (S30 T7 cell-free system, Renilla luciferase); type: biochemical; conditions: E. coli S30 T7 cell-free transcription/translation, 1 h, 37 °C; read-out: IC50 Inhib. of Protein Synthesis
Experimental: The influence of hybrids OBP-4 and OBP-5 against protein synthesis was confirmed by the S30 T7 High-Yield Protein Expression System (Promega Co., Ltd.). The S30 T7 High-Yield Protein Expression System is an E. coli extract-based cell-free protein expression system, which can effectively transcribe and translate DNA fragments with a T7 promoter. The reaction system containing 1 μg plasmid DNA, 20 μL S30 Premix Plus and 18 μL T7 S30 Extract with or without compounds was incubated for 1 h at 37 °C with a rotational speed of 250 rpm, and terminated by cooling in ice for 5 min in a 96-well white multi-well plate. Then, 1.25 μL of the translation reaction mixture was added to 48.75 μL of Renilla Luciferase Assay Lysis Buffer, and mixed with 50 μL of Renilla Luciferase Assay Reagent (cat no. E2810; Promega). Renilla luciferase activity was measured on EnSpire® Multimode Plate Reader (PerkinElmer, Waltham, MA, USA). […] LZD was used as a positive control.

[15] = E. faecalis clinical isolates, CLSI criteria
[16] = Enterococcus faecalis, E. faecalis, 72 clinical isolates
[17] = E. faecium clinical isolates, CLSI criteria

`CC(=O)NC[C@H]1CN(c2ccc(N3CCOCC3)c(F)c2)C(=O)O1` [LZD, linezolid, reference compound] was tested, and the MIC [1] was 2 µg/mL (≈ 5.93 µM), the MIC [2] was 128 µg/mL (≈ 379 µM) and the MIC [3] was 4 µg/mL (≈ 11.9 µM). It also gave an MIC [4] of 8 µg/mL (≈ 23.7 µM), an MIC [5] of 128 µg/mL (≈ 379 µM) and an MIC [6] of 4 µg/mL (≈ 11.9 µM). The MIC [7] was 1 µg/mL (≈ 2.96 µM), the “CLSI %S (susceptible)” value ([8]; S. epidermidis clinical isolates, CLSI criteria) was 100.0/- % and the MIC50 ([8]; Staphylococcus epidermidis, S. epidermidis, 10 clinical isolates, read-out: MIC50) was 1 µg/mL (≈ 2.96 µM). It also gave an MIC90 ([8]; Staphylococcus epidermidis, S. epidermidis, 10 clinical isolates, read-out: MIC90) of 1 µg/mL (≈ 2.96 µM), an MIC ([8]; Staphylococcus epidermidis, S. epidermidis, 10 clinical isolates, read-out: MIC Range) of 0.5 to 1 µg/mL (≈ 1.48 to 2.96 µM) and an MIC50 ([9]; read-out: MIC50) of 0.5 µg/mL (≈ 1.48 µM). The MIC90 ([9]; read-out: MIC90) was 4 µg/mL (≈ 11.9 µM), the MIC ([9]; read-out: MIC Range) was 0.5 to 4 µg/mL (≈ 1.48 to 11.9 µM) and the “CLSI %R (resistant)” value [10, 15] was 2.7%. The “CLSI %S (susceptible)” value [10, 15] was 97.3%, the “MIC Range” value ([10]; E. faecalis, 72 clinical isolates) was 0.5 to 8 µg/mL and the MIC50 [10, 16] was 2 µg/mL (≈ 5.93 µM). For the same molecule, the MIC90 [10, 16] was 2 µg/mL (≈ 5.93 µM), the “CLSI %R (resistant)” value [11, 17] was 13.8% and the “CLSI %S (susceptible)” value [11, 17] was 82.8%. The “MIC Range” value ([11]; E. faecium, 47 clinical isolates) was 0.5 to 16 µg/mL, the MIC50 ([11]; Enterococcus faecium, E. faecium, 47 clinical isolates, read-out: MIC50) was 2 µg/mL (≈ 5.93 µM) and the MIC90 ([11]; Enterococcus faecium, E. faecium, 47 clinical isolates, read-out: MIC90) was 4 µg/mL (≈ 11.9 µM). The MIC50 ([12]; read-out: MIC50) was 16 µg/mL (≈ 47.4 µM), the MIC90 ([12]; read-out: MIC90) was greater than 32 µg/mL and the MIC [13] was 8 µg/mL (≈ 23.7 µM). It also gave an IC50 [14] of 5 µM.
